The results in this text go back to US9562035B2, “Benzamide derivative useful as FASN inhibitors for the treatment of cancer” (Janssen Pharmaceutica NV, priority 2013, dated 2017).

In test [1] the target is T1, FASN Keto-reductase Domain (Homo sapiens, UniProt P49327).
T1 construct: 10 μL hFASN enzyme (full length, 300 ng, purified in house) and 360 μM NADPH; made in house
Kind of test: Fatty Acid Synthase Keto-Reductase Domain (FASN KR) Inhibition. Format: biochemical. Particulars: mean where tested more than once; read-out: FASN K-R Domain pIC50 (converted). Summed up:
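Full-length human FASN (300 ng) in 100 mM KH2PO4 pH 7.5 with 360 μM NADPH and 180 mM ethyl acetoacetate (stock); A340 decrease read over 20 min at room temperature.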

Test [2] concerns the target T2, hFASN enzyme (full length) (Homo sapiens, UniProt P49327).
T2 construct: 10 μL hFASN enzyme (full length, 300 ng, purified in house); made in house
Description: Fatty Acid Synthase (FASN) Inhibition Scintillation Proximity Assay. Format: biochemical. Particulars: for IC50: mean where tested more than once, ~ = standard error of pIC50 larger than 0.5; for inhibition at 10 µM: read-out: FASN % Effect @1E−05M. Summed up: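 Purified full-length human FASN (300 ng) incubated 60 min at room temperature with NADPH, [3H]-acetyl-CoA and malonyl-CoA in 100 mM KH2PO4 pH 7.5, 1 mM DTT; compound at 30 μM to 0.01 μM. [3H]-palmitate captured by SPA imaging beads; IC50 from 4-parameter fit, reported as pIC50.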

Test [3] has as its system A2780 ovarian cells. Kind of test: A2780 Ovarian Cell Proliferation Assay in Lipid Reduced Medium, with Palmitate (control). Format: cell-based. Particulars: Homo sapiens, A2780; lipid reduced medium, 25 μM palmitate, 96 h, MTT; read-out: Proliferation A2780 with Palmitate pIC50 (converted). In a few lines: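 A2780 cells were seeded in RPMI1640 with 10% FCS, then switched next day to medium with 10% lipid-reduced serum. Compound was added with final 25 μM palmitate, 0.2% fatty-acid-free BSA and 0.2% DMSO, and incubated 96 h at 37 °C. Read-out was MTT absorbance at 544 nm; pIC50 = −log(IC50) from curve fit.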

For test [4], the system named is A2780 ovarian cells. Description: A2780 Ovarian Cell Proliferation Assay in Lipid Reduced Medium, without Palmitate. Particulars: Homo sapiens, A2780; lipid reduced medium, without palmitate, 96 h, MTT; read-out: Proliferation A2780 w/o Palmitate pIC50 (converted). Format: cell-based. In a few lines:
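A2780 cells were seeded in 10% FCS medium and switched next day to 10% lipid-reduced serum without palmitate. Compounds at 0.01–30 μM were added with 0.2% DMSO, 0.2% fatty-acid-free BSA and 0.25% ethanol final. After 96 h, MTT absorbance at 544 nm was normalized to plate controls, and IC50/pIC50 came from a 4-parameter logistic fit.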

T1 sequence (P49327 whole entry, the tested form may be a part): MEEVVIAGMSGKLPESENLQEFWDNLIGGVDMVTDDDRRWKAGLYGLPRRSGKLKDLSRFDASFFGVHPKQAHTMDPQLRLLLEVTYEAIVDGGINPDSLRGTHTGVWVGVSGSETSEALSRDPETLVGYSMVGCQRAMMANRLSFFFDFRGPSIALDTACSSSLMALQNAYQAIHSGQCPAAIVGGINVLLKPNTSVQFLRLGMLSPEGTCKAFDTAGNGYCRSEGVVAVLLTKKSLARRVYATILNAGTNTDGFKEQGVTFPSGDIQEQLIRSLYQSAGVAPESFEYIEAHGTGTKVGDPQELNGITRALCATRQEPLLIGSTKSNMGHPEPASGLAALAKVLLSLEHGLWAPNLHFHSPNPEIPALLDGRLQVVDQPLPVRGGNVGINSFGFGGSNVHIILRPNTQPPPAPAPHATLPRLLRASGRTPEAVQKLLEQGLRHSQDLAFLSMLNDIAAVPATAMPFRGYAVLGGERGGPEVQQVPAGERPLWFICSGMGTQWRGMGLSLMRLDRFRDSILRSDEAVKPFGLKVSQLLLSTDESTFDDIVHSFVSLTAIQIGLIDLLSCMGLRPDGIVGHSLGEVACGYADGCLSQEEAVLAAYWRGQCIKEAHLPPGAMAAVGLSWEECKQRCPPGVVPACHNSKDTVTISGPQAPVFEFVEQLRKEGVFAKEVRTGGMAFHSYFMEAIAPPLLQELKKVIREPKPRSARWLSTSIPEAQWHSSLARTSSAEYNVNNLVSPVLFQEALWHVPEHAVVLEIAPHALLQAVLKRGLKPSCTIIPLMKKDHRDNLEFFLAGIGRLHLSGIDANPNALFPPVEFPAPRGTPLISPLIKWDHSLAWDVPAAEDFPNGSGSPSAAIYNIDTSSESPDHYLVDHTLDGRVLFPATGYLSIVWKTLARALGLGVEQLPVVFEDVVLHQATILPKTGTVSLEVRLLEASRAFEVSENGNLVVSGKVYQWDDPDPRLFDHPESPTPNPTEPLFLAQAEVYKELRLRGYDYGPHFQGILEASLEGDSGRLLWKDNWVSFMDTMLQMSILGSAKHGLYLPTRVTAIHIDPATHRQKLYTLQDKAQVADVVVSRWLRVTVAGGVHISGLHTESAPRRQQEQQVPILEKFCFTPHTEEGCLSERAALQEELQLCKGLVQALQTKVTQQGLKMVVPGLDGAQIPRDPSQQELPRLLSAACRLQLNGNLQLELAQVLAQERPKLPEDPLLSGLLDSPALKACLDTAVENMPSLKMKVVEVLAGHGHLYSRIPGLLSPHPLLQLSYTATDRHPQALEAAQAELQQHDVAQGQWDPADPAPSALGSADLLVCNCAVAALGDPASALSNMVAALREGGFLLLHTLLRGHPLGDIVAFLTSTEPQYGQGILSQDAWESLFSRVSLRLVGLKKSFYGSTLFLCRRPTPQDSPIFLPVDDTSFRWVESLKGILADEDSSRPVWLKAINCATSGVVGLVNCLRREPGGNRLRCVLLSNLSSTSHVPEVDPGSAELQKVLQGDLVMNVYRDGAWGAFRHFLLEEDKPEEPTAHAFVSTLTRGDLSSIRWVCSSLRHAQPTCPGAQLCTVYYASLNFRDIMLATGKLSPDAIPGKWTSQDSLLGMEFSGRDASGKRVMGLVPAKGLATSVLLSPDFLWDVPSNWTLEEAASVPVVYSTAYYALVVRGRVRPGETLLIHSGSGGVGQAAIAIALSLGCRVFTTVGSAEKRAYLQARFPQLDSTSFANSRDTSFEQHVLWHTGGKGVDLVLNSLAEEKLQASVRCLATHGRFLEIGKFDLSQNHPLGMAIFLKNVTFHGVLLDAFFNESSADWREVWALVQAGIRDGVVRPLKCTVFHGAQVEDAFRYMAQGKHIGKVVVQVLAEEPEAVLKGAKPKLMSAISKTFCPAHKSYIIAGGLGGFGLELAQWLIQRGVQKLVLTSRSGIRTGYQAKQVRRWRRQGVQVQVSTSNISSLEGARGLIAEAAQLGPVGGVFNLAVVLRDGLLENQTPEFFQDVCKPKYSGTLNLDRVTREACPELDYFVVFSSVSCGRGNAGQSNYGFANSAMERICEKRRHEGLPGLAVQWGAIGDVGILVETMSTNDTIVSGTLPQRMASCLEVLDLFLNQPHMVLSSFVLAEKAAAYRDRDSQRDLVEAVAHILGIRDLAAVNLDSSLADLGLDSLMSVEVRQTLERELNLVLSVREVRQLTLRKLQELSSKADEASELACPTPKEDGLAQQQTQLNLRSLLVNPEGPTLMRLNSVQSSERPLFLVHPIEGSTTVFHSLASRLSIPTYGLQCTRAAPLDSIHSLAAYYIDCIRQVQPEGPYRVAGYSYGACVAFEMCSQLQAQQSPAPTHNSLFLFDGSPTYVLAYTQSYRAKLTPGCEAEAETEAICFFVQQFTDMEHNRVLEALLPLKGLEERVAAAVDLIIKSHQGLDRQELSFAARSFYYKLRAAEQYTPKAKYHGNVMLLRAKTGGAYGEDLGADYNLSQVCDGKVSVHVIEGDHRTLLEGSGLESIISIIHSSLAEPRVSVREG
T2 sequence (P49327 whole entry): as the sequence (P49327 whole entry, the tested form may be a part) above

On to `Cc1ccc(C(=O)N2CC(c3ccc(-c4ccncc4N)cc3)C2)cc1NC(=O)c1ccc(N2CCOCC2)nc1` [Compound 265, N-(5-(3-(4-(3-aminopyridin-4-yl)phenyl)azetidine-1-carbonyl)-2-methylphenyl)-6-morpholinonicotinamide], for which the IC50 in test [1] is 60.3 nM; in test [2], 21.9 nM; with A2780 ovarian cells [3], > 10 µM; in the test on A2780 ovarian cells [4], 20.9 nM. For the same compound, the inhibition at 10 µM in test [2] stood at 110%.
The matching figures for `Cc1ccc(C(=O)N2CC(c3ccc(-c4ccncc4N)cc3)C2)cc1NC(=O)c1ccc(Cl)nc1` [Compound 266, N-(5-(3-(4-(3-aminopyridin-4-yl)phenyl)azetidine-1-carbonyl)-2-methylphenyl)-6-chloronicotinamide]: 107 nM, 38 nM, > 10 µM, ~41.7 nM and 112%.
The matching figures for `Cc1ccc(C(=O)N2CCC(c3ccc(-c4cnn(CCO)c4)cc3)CC2)cc1NC(=O)c1ccc(NC(C)C)nc1` [Compound 267, N-(5-(4-(4-(1-(2-hydroxyethyl)-1H-pyrazol-4-yl)phenyl)piperidine-1-carbonyl)-2-methylphenyl)-6-(isopropylamino)nicotinamide]: 58.9 nM, 25.7 nM, > 10 µM, ~22.4 nM and 112%.
The matching figures for `Cc1ccc(C(=O)N2CCC(c3ccc(-c4cnn(C)c4)nc3)CC2)cc1NC(=O)c1ccc(NC(C)C)nc1` [Compound 268, 6-(isopropylamino)-N-(2-methyl-5-(4-(6-(1-methyl-1H-pyrazol-4-yl)pyridin-3-yl)piperidine-1-carbonyl)phenyl)nicotinamide]: 1350 nM, 166 nM, > 10 µM, 537 nM and 104%.
`CC(C)Nc1ccc(C(=O)Nc2cc(C(=O)N3CCC(c4ccc(-c5cnn(C)c5)cc4)CC3)ccc2O)cn1` [Compound 269, N-(2-hydroxy-5-(4-(4-(1-methyl-1H-pyrazol-4-yl)phenyl)piperidine-1-carbonyl)phenyl)-6-(isopropylamino)nicotinamide]: the IC50 in test [1] is 257 nM; in test [2], 69.2 nM; with A2780 ovarian cells [3] it was 7.24 µM; in the test on A2780 ovarian cells [4], 316 nM. Further, the inhibition at 10 µM in test [2] came out at 107%.
The matching figures for `Cc1ccc(C(=O)N2CCC(c3ccc(-c4cnn(C)c4)nc3)CC2)cc1NC(=O)c1ccc(Cl)nc1` [Compound 270, 6-chloro-N-(2-methyl-5-(4-(6-(1-methyl-1H-pyrazol-4-yl)pyridin-3-yl)piperidine-1-carbonyl)phenyl)nicotinamide]: 2750 nM, 589 nM, > 10 µM, 1480 nM and 93%.
The matching figures for `CC(C)Nc1ccc(C(=O)Nc2cc(C(=O)N3CCC(c4ccc(-c5cnn(C)c5)cc4)CC3)ccc2OCc2ccccc2)cn1` [Compound 271, N-(2-(benzyloxy)-5-(4-(4-(1-methyl-1H-pyrazol-4-yl)phenyl)piperidine-1-carbonyl)phenyl)-6-(isopropylamino)nicotinamide]: 537 nM, 100 nM, > 10 µM, 490 nM and 101%.
`Cc1ccc(C(=O)N2CCC(c3ccc(-c4cnn(-c5ccncc5)c4)cc3)CC2)cc1NC(=O)c1ccc(NC(C)C)nc1` [Compound 272, 6-(isopropylamino)-N-(2-methyl-5-(4-(4-(1-(pyridin-4-yl)-1H-pyrazol-4-yl)phenyl)piperidine-1-carbonyl)phenyl)nicotinamide]: the IC50 was 105 nM in test [1], 29.5 nM in test [2], 1.38 µM with A2780 ovarian cells [3] and 43.7 nM with A2780 ovarian cells [4]. In addition, the inhibition at 10 µM in test [2] stood at 112%.
